Test results from PubChem BioAssay (NCI).
Values joined by “and” are separate entries in the source; they are usually repeats but may differ in a detail not shown here. Equal values may be shown once.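 Results reflect a 48-hour exposure of cells in 96-well plates to compound at five concentrations. At the GI50, growth is halved. Definition used: TGI = concentration required for complete inhibition of growth.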

Key:
Assay in all cases: growth of human tumour cells (NCI), 48 h
A498 renal = tested on: A498 renal
RPMI-8226 leukemia = tested on: RPMI-8226 leukemia
UACC-62 melanoma = tested on: UACC-62 melanoma
CCRF-CEM leukemia = tested on: CCRF-CEM leukemia
U251 CNS = tested on: U251 CNS
M14 melanoma = tested on: M14 melanoma
NCI-H522 lung = tested on: NCI-H522 lung
SK-MEL-5 melanoma = tested on: SK-MEL-5 melanoma
HCT-116 colon = tested on: HCT-116 colon
SR leukemia = tested on: SR leukemia

Row | SMILES | GI50 (A498 renal) | TGI (A498 renal) | GI50 (RPMI-8226 leukemia) | TGI (RPMI-8226 leukemia) | GI50 (UACC-62 melanoma) | TGI (UACC-62 melanoma) | GI50 (CCRF-CEM leukemia) | TGI (CCRF-CEM leukemia) | GI50 (U251 CNS) | TGI (U251 CNS) | GI50 (M14 melanoma) | TGI (M14 melanoma) | GI50 (NCI-H522 lung) | TGI (NCI-H522 lung) | GI50 (SK-MEL-5 melanoma) | TGI (SK-MEL-5 melanoma) | GI50 (HCT-116 colon) | TGI (HCT-116 colon) | TGI (SR leukemia) | GI50 (SR leukemia)
1 | Cc1ccc2c(-c3ccnc(Nc4cccc(C(F)(F)F)c4)n3)c(-c3ccccc3)nn2n1 | 5.72 µM | > 15.4 µM | > 14.2 µM | > 25 µM | 6.38 µM | > 16.1 µM | 7.77 µM | > 25 µM | 10.3 µM | > 25 µM | 10.5 µM | > 17.2 µM | 5.73 µM | > 14.7 µM | 4.05 µM | 7.94 µM | 4.32 µM | > 12.2 µM |  | 
2 | CC[C@@]1(O)C(=O)OCc2c1cc1n(c2=O)Cc2cc3cc(O)ccc3nc2-1 | 0.195 µM and 0.0455 µM | 0.703 µM and 0.453 µM | 0.139 µM and 0.277 µM | 6.03 µM and 4.87 µM |  | 0.0795 µM and 0.0565 µM |  |  |  | 0.0327 µM |  | 1.39 µM | < 0.0075 µM | 0.103 µM and 0.447 µM | 0.0247 µM and 0.0167 µM | 0.111 µM and 0.0959 µM | 0.0228 µM and 0.0176 µM | 13.7 µM | 2.14 µM | 
3 | Cc1cc(NS(=O)(=O)c2ccc(NC(=O)c3cccc4c(Nc5ccc(S(=O)(=O)Nc6cc(C)on6)cc5)c5ccc(Cl)cc5nc34)cc2)no1 |  | > 100 µM |  | > 100 µM |  | > 100 µM |  | > 100 µM |  | > 100 µM |  | > 100 µM |  | > 100 µM |  | > 100 µM |  | 57.5 µM |  | 
4 | COc1ccc(C(=O)C(c2ccc(OC)cc2)C2(O)C(=O)Nc3c(Cl)cc(Cl)cc32)cc1 (stereo not drawn) |  |  |  | 33.6 µM |  |  |  | 44.2 µM |  | > 100 µM |  | 33.6 µM |  | 35.2 µM |  | 34.7 µM |  |  |  | 
5 | C=C1C2CCCC1C1(S(C)(=O)=O)CCCCC21O (stereo not drawn) |  |  |  | > 100 µM |  | > 100 µM |  |  |  | > 100 µM |  | > 100 µM |  | > 100 µM |  | > 100 µM |  | > 100 µM | > 100 µM | 
6 | COc1cc2c3c(n(CCCNCCCCN)c(=O)c2cc1OC)-c1cc2c(cc1C3=O)OCO2 | 5.07 µM | 21 µM | 0.355 µM | 13.1 µM | 2.1 µM | 11.3 µM |  | > 40.1 µM | 0.234 µM | 6.54 µM | 9.19 µM | 27.6 µM | 5.64 µM | > 100 µM | 2.95 µM | 19.2 µM | 1.85 µM | 15.2 µM |  | 
7 | CCN(CC)CCN1C(=O)c2c(c3c4cccc(Cl)c4n(C4OC(CO)C(OC)C(O)C4O)c3c3[nH]c4c(Cl)cccc4c23)C1=O (stereo not drawn) |  |  | 0.000139 µM and < 0.0268 µM | 0.00306 µM | 0.000111 µM and < 0.0264 µM and < 0.01 µM |  | < 0.0001 µM |  | < 0.0001 µM |  | 0.000565 µM and < 0.0368 µM and < 0.0145 µM |  | < 0.01 µM | 0.21 µM and 0.146 µM |  |  | < 0.0001 µM |  |  | < 0.0001 µM
8 | Cc1cc(C)c([O-])c(-[n+]2c(-c3ccccc3)cc(-c3ccccc3)cc2-c2ccccc2)c1 |  |  |  |  |  | 12.5 µM |  | 10.1 µM |  | 14.9 µM |  | 18.3 µM |  |  |  | 5.71 µM |  | 10.9 µM | 11.8 µM | 
9 | CCP(C)(=O)CC |  |  |  | > 100 µM |  | > 100 µM |  | > 100 µM |  | > 100 µM |  | > 100 µM |  |  |  | > 100 µM |  | > 100 µM | > 100 µM | 
10 | COc1cc(C(=O)/C=C/c2cccnc2Nc2ccc(Cl)cc2)cc(OC)c1OC | 1.41 µM | 2.84 µM | 0.655 µM | 5.01 µM | 1.54 µM | 2.98 µM | 0.369 µM | 4.87 µM | 1.25 µM | 2.54 µM | 1.75 µM | 3.22 µM | 1.46 µM | 3 µM | 1.5 µM | 2.84 µM | 0.568 µM | 1.84 µM |  | 
11 | CC1CN1c1c(C(=O)/C=C/c2ccc(F)cc2)c(-c2ccccc2)nn(C)c1=O (stereo not drawn) |  |  |  | 32.2 µM |  | 27.6 µM |  | 48.8 µM |  | 28.9 µM |  | 30.5 µM |  |  |  | 29.5 µM |  | 27.3 µM |  | 
12 | [CH3][Ge]([CH3])([CH2]CC#N)[S]c1ccccc1 |  |  | 16.2 µM | 53.2 µM | 13.5 µM | 29.8 µM | 1.38 µM | 4.35 µM | 9.85 µM | 22.6 µM | 18.8 µM | 43 µM | 3.31 µM | 11.1 µM | 26 µM | 75.9 µM |  |  |  | 
13 | CCN(CC)Cc1cc(Nc2ccnc3ccc(OC)cc23)ccc1O | 2.75 µM | 12.5 µM | 3.97 µM | 15.1 µM | 5.78 µM | 20.9 µM |  |  | 4.46 µM | 17.9 µM | 2.88 µM | 10.1 µM | 2.21 µM | 5.61 µM | 2.46 µM | 6.31 µM | 2.62 µM | 15 µM | 7.77 µM | 2.85 µM
14 | Cc1c(Br)c(Br)c2c3c1nc(N1CCNCC1)n3CCC2 | 1.44 µM | 2.99 µM |  |  | 1.62 µM | 3.08 µM |  |  | 1.86 µM | 4.11 µM | 1.8 µM | 3.55 µM | 1.49 µM | 3.14 µM | 1.89 µM | 3.42 µM | 1.73 µM | 3.19 µM | 5.24 µM | 1.6 µM
15 | CCCCN(CCCC)CC(C(=O)Nc1ccc([N+](=O)[O-])cc1[N+](=O)[O-])/C(C)=N\NC(=O)c1ccncc1 (stereo not drawn) |  | > 100 µM |  | > 100 µM |  | > 100 µM |  | > 100 µM |  | > 100 µM |  | > 100 µM |  | > 100 µM |  | > 100 µM |  |  |  | 
16 | COC1(OC)CCC2(C)OC(c3ccccc3)C1O2 (stereo not drawn) |  |  |  | > 100 µM |  | > 100 µM |  | > 100 µM |  | > 100 µM |  | > 100 µM |  | > 100 µM |  |  |  | > 100 µM | > 100 µM | 
17 | Cc1[nH]c2ccccc2c1/C=C/c1c(C)[nH]c2ccccc12 |  | > 100 µM |  | > 100 µM |  | > 100 µM |  | > 100 µM |  | > 100 µM |  | > 100 µM |  |  |  | > 100 µM |  | > 100 µM |  | 
18 | CC1(C)CCC2(C(=O)O)C(O)CC3(C)C(=CCC4C5(C)CCC(OC6OCC(O)C(O)C6OC6OCC(O)C(O)C6OC6OCC(O)C(OC7OC(CO)C(O)C(O)C7O)C6O)C(C)(C)C5CCC43C)C2C1 (stereo not drawn) |  | 59 µM |  |  |  | > 100 µM |  | 71.9 µM |  | > 100 µM |  | > 100 µM |  | 49.4 µM |  | > 100 µM |  | > 100 µM | 37.9 µM | 
